Data as given in ChEMBL document CHEMBL1143001, “Designing active template molecules by combining computational de novo design and human chemist's expertise” (J Med Chem, 2007).
Activity calls are given as the source filed them. The rule behind the calls is not given here.

Organism: Canis lupus familiaris
Assay: Inhibition of dog kidney (Na+/K+) ATPase at 10 uM
Settings: not given

Compound	Activity
OCc1ccccc1C1CCCNC1 (stereo unspecified)	inactive
N#Cc1cccc(CN2CCCCC2=O)c1	inactive
NCc1cccc(CC2CCCNC2=O)c1 (stereo unspecified)	inactive
Nc1ccc(-c2ccoc2)cc1	inactive

Test system: Protein kinase C (Rattus norvegicus)
Assay: Inhibition of rat brain PKC at 10 uM
Settings: not given

Compound	Activity
OCc1ccccc1C1CCCNC1 (stereo unspecified)	inactive
N#Cc1cccc(CN2CCCCC2=O)c1	inactive
NCc1cccc(CC2CCCNC2=O)c1 (stereo unspecified)	inactive
Nc1ccc(-c2ccoc2)cc1	inactive

Target: Muscarinic acetylcholine receptor M4 (Rattus norvegicus) (UniProt P08485)
Assay: Displacement of radiolabeled atropine from rat brain muscarinic M4 receptor at 10 uM
Settings: not given

Muscarinic acetylcholine receptor M4 (Rattus norvegicus), sequence (P08485 whole entry): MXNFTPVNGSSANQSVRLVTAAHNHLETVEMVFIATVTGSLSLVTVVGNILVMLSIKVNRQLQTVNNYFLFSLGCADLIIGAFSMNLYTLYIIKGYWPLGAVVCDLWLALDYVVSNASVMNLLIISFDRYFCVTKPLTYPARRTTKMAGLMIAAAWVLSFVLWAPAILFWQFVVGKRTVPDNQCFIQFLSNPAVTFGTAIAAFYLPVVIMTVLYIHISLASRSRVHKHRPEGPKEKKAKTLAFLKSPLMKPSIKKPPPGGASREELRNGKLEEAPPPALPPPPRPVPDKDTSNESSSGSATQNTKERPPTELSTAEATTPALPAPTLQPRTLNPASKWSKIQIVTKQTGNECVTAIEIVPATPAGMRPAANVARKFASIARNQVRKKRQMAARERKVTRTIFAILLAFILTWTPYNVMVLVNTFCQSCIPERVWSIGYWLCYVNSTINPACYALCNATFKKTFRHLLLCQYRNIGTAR

Compound	inhibition [%]
NCc1cccc(CC2CCCNC2=O)c1 (stereo unspecified)	50

Organism: Homo sapiens
Assay: Displacement of radiolabeled ligand from nicotinic acetylcholine receptor at 10 uM
Settings: not given

Compound	inhibition [%]
OCc1ccccc1C1CCCNC1 (stereo unspecified)	45

Organism: Rattus norvegicus
Assay: Inhibition of rat striatum tyrosine hydroxylase at 10 uM
Assay type: tissue-based
Settings: not given

Compound	Activity
OCc1ccccc1C1CCCNC1 (stereo unspecified)	inactive
N#Cc1cccc(CN2CCCCC2=O)c1	inactive
NCc1cccc(CC2CCCNC2=O)c1 (stereo unspecified)	inactive
Nc1ccc(-c2ccoc2)cc1	inactive

Target: T1, Amine oxidase [flavin-containing] B (Homo sapiens, UniProt P27338)
T1 sequence (P27338 whole entry): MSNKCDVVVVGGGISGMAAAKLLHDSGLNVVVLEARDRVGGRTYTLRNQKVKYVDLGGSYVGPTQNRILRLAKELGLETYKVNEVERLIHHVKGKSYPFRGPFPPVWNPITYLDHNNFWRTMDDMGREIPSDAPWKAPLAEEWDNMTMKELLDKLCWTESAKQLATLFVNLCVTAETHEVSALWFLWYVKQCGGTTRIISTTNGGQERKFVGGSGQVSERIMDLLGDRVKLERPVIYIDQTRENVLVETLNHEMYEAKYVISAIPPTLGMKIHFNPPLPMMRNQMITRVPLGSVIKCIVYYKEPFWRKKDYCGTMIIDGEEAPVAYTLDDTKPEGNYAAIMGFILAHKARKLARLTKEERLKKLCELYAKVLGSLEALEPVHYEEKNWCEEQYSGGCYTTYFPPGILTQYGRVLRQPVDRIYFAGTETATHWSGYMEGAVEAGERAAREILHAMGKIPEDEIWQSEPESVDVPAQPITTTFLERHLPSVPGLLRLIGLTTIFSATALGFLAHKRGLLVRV
Assay: Inhibition of MAOB in human platelets at 10 uM
Settings: not given

Compound	Activity
OCc1ccccc1C1CCCNC1 (stereo unspecified)	Not Active
N#Cc1cccc(CN2CCCCC2=O)c1	Not Active
NCc1cccc(CC2CCCNC2=O)c1 (stereo unspecified)	Not Active
Nc1ccc(-c2ccoc2)cc1	Not Active

Target: Muscarinic acetylcholine receptor M1 (Rattus norvegicus) (UniProt P08482)
Assay: Displacement of radiolabeled atropine from rat brain muscarinic M1 receptor at 10 uM
Settings: not given

Muscarinic acetylcholine receptor M1 (Rattus norvegicus), sequence (P08482 whole entry): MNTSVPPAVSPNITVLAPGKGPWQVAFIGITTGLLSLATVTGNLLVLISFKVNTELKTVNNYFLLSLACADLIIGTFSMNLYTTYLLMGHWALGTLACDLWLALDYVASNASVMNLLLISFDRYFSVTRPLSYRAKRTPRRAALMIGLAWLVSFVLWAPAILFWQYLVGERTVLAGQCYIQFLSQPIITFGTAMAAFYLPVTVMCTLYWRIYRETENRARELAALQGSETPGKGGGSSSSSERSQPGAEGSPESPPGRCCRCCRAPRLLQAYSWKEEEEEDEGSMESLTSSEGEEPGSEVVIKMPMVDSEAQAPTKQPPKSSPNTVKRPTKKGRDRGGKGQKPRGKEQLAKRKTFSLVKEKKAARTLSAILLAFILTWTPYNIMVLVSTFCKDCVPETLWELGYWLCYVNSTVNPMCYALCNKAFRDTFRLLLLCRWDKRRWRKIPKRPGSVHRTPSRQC

Compound	inhibition [%]
NCc1cccc(CC2CCCNC2=O)c1 (stereo unspecified)	50

Organism: Bos taurus
Assay: Inhibition of bovine PDE1 at 10 uM
Settings: not given

Compound	Activity
OCc1ccccc1C1CCCNC1 (stereo unspecified)	inactive
N#Cc1cccc(CN2CCCCC2=O)c1	inactive
NCc1cccc(CC2CCCNC2=O)c1 (stereo unspecified)	inactive
Nc1ccc(-c2ccoc2)cc1	inactive

Target: Sodium-dependent noradrenaline transporter (Homo sapiens) (UniProt P23975)
Assay: Displacement of radiolabeled protriptyline from human recombinant NET expressed in CHO cells at 10 uM
Assay type: cell-based
Settings: not given

Sodium-dependent noradrenaline transporter (Homo sapiens), sequence (P23975 whole entry): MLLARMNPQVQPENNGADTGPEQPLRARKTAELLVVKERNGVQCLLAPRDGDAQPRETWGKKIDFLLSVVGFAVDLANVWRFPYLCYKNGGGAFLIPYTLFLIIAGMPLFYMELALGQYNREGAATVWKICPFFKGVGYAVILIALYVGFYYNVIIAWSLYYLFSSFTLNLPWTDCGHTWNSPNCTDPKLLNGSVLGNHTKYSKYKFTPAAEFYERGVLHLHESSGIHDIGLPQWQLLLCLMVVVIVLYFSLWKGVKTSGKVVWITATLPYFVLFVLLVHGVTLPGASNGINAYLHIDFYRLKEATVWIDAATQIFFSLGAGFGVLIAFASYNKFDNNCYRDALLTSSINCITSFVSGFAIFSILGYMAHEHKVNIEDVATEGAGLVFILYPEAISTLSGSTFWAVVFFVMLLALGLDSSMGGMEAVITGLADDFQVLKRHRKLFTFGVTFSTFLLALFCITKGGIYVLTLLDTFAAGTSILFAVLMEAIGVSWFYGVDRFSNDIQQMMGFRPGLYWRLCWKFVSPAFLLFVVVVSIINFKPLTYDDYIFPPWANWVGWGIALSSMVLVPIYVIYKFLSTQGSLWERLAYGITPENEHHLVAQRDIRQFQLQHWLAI

Compound	inhibition [%]
Nc1ccc(-c2ccoc2)cc1	77

Target: cGMP-dependent 3',5'-cyclic phosphodiesterase (Homo sapiens) (UniProt O00408)
Assay: Inhibition of PDE2 expressed in differentiated U937 cells at 10 uM
Assay type: cell-based
Settings: U-937

cGMP-dependent 3',5'-cyclic phosphodiesterase (Homo sapiens), sequence (O00408 whole entry): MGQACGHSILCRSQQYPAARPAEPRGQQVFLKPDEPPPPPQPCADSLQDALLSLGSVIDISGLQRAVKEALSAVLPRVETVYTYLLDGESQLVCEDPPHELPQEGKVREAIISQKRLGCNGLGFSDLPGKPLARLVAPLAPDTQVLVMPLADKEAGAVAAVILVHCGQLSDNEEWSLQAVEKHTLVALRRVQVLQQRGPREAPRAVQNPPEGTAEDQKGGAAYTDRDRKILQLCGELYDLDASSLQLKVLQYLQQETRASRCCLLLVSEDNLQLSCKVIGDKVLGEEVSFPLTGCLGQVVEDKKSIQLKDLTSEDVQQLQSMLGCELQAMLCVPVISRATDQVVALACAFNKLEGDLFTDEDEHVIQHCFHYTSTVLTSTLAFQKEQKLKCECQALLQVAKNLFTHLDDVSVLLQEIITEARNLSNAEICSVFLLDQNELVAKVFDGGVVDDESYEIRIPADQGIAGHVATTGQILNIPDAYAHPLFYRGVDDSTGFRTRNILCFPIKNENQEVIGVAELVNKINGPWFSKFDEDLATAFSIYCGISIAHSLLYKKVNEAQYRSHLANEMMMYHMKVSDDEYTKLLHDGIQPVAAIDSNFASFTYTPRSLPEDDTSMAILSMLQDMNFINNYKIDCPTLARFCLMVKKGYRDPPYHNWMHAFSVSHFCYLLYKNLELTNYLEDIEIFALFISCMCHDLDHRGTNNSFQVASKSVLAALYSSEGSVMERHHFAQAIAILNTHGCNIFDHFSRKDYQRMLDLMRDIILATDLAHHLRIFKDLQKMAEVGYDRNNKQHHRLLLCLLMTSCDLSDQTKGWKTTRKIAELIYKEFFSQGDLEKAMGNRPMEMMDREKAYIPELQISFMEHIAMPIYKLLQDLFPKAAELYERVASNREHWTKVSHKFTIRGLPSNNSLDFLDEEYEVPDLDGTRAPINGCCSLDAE

Compound	Activity
OCc1ccccc1C1CCCNC1 (stereo unspecified)	inactive
N#Cc1cccc(CN2CCCCC2=O)c1	inactive
NCc1cccc(CC2CCCNC2=O)c1 (stereo unspecified)	inactive
Nc1ccc(-c2ccoc2)cc1	inactive

Target: Serotonin (5-HT) receptor (Rattus norvegicus) (UniProt P35563+P35365+P32305+P31388+Q9JJ16+P28564+P30994+Q62758+P08909+P14842+P30940+P35364+P19327+P28565)
Assay: Displacement of radiolabeled serotonin from 5-HT receptor in rat cerebral cortex
Assay type: tissue-based
Settings: concentration not given here

Compound	inhibition [%]
OCc1ccccc1C1CCCNC1 (stereo unspecified)	39

Organism: Rattus norvegicus
Assay: Displacement of radiolabeled naloxone from opiate receptor in rat cerebral cortex
Assay type: tissue-based
Settings: concentration not given here

Compound	inhibition [%]
OCc1ccccc1C1CCCNC1 (stereo unspecified)	35

Target: T2, Phenylethanolamine N-methyltransferase (Bos taurus) (UniProt P10938)
T2 sequence (whole entry): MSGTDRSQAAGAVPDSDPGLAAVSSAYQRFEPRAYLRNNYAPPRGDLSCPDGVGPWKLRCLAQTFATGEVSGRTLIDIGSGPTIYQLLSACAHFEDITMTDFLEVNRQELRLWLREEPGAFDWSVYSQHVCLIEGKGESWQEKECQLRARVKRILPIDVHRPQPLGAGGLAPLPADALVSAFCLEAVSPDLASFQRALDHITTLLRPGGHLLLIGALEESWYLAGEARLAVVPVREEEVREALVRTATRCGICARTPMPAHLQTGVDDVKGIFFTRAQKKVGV
Assay: Inhibition of bovine adrenal medulla phenylethanolamine-N-methyl transferase at 10 uM
Assay type: tissue-based
Settings: not given

Compound	Activity
OCc1ccccc1C1CCCNC1 (stereo unspecified)	inactive
N#Cc1cccc(CN2CCCCC2=O)c1	inactive
NCc1cccc(CC2CCCNC2=O)c1 (stereo unspecified)	inactive
Nc1ccc(-c2ccoc2)cc1	inactive

Organism: Sus scrofa
Assay: Inhibition of pig liver catechol-O-methyl transferase at 10 uM
Settings: not given

Compound	Activity
OCc1ccccc1C1CCCNC1 (stereo unspecified)	inactive
N#Cc1cccc(CN2CCCCC2=O)c1	inactive
NCc1cccc(CC2CCCNC2=O)c1 (stereo unspecified)	inactive
Nc1ccc(-c2ccoc2)cc1	inactive

Target: cGMP-specific 3',5'-cyclic phosphodiesterase (Homo sapiens) (UniProt O76074)
Assay: Inhibition of PDE5 in human platelet cells at 10 uM
Assay type: cell-based
Settings: not given

Compound	Activity
OCc1ccccc1C1CCCNC1 (stereo unspecified)	inactive
N#Cc1cccc(CN2CCCCC2=O)c1	inactive
NCc1cccc(CC2CCCNC2=O)c1 (stereo unspecified)	inactive
Nc1ccc(-c2ccoc2)cc1	inactive

Target: Phosphodiesterase 4 (Homo sapiens) (UniProt P27815+Q08499+Q07343+Q08493)
Assay: Inhibition of PDE4 expressed in U937 cells at 10 uM
Assay type: cell-based
Settings: U-937

Compound	Activity
OCc1ccccc1C1CCCNC1 (stereo unspecified)	inactive
N#Cc1cccc(CN2CCCCC2=O)c1	inactive
NCc1cccc(CC2CCCNC2=O)c1 (stereo unspecified)	inactive
Nc1ccc(-c2ccoc2)cc1	inactive

Target: Muscarinic acetylcholine receptor M5 (Rattus norvegicus) (UniProt P08911)
Assay: Displacement of radiolabeled atropine from rat brain muscarinic M5 receptor at 10 uM
Settings: not given

Muscarinic acetylcholine receptor M5 (Rattus norvegicus), sequence (P08911 whole entry): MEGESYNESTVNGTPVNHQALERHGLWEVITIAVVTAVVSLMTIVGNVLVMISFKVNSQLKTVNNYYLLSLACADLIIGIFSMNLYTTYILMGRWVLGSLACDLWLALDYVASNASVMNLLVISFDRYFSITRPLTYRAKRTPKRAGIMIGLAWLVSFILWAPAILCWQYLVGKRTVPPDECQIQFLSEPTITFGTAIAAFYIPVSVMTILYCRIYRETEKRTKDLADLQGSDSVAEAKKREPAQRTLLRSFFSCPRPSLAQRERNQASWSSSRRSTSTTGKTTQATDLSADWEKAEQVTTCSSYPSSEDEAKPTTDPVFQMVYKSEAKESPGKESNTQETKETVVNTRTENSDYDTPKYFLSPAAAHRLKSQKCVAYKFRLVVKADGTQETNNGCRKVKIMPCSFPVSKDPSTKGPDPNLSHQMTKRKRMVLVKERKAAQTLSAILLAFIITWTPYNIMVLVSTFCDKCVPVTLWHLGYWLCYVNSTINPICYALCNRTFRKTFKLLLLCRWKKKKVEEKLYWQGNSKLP

Compound	inhibition [%]
NCc1cccc(CC2CCCNC2=O)c1 (stereo unspecified)	50

Target: Muscarinic acetylcholine receptor M2 (Rattus norvegicus) (UniProt P10980)
Assay: Displacement of radiolabeled atropine from rat brain muscarinic M2 receptor at 10 uM
Settings: not given

Muscarinic acetylcholine receptor M2 (Rattus norvegicus), sequence (P10980 whole entry): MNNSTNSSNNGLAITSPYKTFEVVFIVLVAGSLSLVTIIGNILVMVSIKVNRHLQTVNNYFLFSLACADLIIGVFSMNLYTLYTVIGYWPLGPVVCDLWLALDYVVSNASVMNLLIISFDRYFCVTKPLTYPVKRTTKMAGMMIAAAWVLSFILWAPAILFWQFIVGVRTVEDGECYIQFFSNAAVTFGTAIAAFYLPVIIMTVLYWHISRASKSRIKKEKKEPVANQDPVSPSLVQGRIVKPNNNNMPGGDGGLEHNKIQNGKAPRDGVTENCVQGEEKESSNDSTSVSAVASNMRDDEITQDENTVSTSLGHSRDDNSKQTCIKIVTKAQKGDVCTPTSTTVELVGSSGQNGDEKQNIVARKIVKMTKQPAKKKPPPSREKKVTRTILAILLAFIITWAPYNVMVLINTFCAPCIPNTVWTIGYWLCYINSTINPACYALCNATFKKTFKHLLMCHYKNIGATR

Compound	inhibition [%]
NCc1cccc(CC2CCCNC2=O)c1 (stereo unspecified)	50

Target: Muscarinic acetylcholine receptor M3 (Rattus norvegicus) (UniProt P08483)
Assay: Displacement of radiolabeled atropine from rat brain muscarinic M3 receptor at 10 uM
Settings: not given

Compound	inhibition [%]
NCc1cccc(CC2CCCNC2=O)c1 (stereo unspecified)	50

Target: Phosphodiesterase 3 (Homo sapiens) (UniProt Q14432+Q13370)
Assay: Inhibition of PDE3 expressed in human platelets at 10 uM
Settings: not given

Compound	Activity
OCc1ccccc1C1CCCNC1 (stereo unspecified)	inactive
N#Cc1cccc(CN2CCCCC2=O)c1	inactive
NCc1cccc(CC2CCCNC2=O)c1 (stereo unspecified)	inactive
Nc1ccc(-c2ccoc2)cc1	inactive

Target: 4-aminobutyrate aminotransferase, mitochondrial (Rattus norvegicus) (UniProt P50554)
Assay: Inhibition of rat brain GABA transaminase at 10 uM
Settings: not given

4-aminobutyrate aminotransferase, mitochondrial (Rattus norvegicus), sequence (P50554 28-500 limits assumed): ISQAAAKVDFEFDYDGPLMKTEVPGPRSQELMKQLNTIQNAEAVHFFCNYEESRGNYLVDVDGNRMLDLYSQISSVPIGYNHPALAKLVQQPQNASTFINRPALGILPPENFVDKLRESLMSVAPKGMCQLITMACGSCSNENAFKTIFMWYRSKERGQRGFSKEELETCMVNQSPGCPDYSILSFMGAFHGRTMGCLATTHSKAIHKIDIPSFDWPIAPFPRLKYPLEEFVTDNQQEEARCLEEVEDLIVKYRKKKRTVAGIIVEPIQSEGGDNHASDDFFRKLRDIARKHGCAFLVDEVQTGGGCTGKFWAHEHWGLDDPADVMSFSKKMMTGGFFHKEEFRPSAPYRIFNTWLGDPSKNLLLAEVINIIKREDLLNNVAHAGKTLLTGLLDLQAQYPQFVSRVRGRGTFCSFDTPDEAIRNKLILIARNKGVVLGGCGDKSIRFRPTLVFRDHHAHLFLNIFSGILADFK

Compound	Activity
OCc1ccccc1C1CCCNC1 (stereo unspecified)	inactive
N#Cc1cccc(CN2CCCCC2=O)c1	inactive
NCc1cccc(CC2CCCNC2=O)c1 (stereo unspecified)	inactive
Nc1ccc(-c2ccoc2)cc1	inactive

Organism: Bos taurus
Assay: Inhibition of bovine lung guanylyl cyclase at 10 uM
Settings: not given

Compound	Activity
OCc1ccccc1C1CCCNC1 (stereo unspecified)	inactive
N#Cc1cccc(CN2CCCCC2=O)c1	inactive
NCc1cccc(CC2CCCNC2=O)c1 (stereo unspecified)	inactive
Nc1ccc(-c2ccoc2)cc1	inactive

Target: Adrenergic receptor alpha-1 (Rattus norvegicus) (UniProt P15823+P23944+P43140)
Assay: Displacement of radiolabeled prazosin from adrenergic alpha1 receptor in rat cerebral cortex
Assay type: tissue-based
Settings: concentration not given here

Compound	inhibition [%]
OCc1ccccc1C1CCCNC1 (stereo unspecified)	47

Target: Adrenergic receptor alpha-2 (Rattus norvegicus) (UniProt P22086+P19328+P22909)
Assay: Displacement of radiolabeled yohimbine from adrenergic alpha-2 receptor in rat cerebral cortex
Assay type: tissue-based
Settings: concentration not given here

Compound	inhibition [%]
OCc1ccccc1C1CCCNC1 (stereo unspecified)	62

Target: Acetylcholinesterase (Homo sapiens) (UniProt P22303)
Assay: Inhibition of human recombinant AChE expressed in HEK293 cells at 10 uM
Assay type: cell-based
Settings: not given

Acetylcholinesterase (Homo sapiens), sequence (P22303 whole entry): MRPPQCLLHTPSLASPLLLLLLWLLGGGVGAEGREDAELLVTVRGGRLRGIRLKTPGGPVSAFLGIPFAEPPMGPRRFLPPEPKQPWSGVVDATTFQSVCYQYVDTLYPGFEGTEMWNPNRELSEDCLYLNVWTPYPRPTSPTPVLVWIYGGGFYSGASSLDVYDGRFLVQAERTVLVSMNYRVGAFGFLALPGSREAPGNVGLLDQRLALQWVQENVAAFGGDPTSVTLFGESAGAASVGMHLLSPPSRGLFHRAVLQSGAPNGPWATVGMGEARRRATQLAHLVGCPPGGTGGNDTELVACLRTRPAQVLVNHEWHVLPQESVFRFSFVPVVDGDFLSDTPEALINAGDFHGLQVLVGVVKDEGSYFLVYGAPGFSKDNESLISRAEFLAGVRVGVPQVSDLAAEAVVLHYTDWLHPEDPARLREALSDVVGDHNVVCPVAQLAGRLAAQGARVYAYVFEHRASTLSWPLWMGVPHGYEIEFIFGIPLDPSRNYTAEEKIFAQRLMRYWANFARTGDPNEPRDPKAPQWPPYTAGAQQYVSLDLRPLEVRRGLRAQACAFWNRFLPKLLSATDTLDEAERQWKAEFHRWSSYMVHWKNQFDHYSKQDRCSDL

Compound	Activity
OCc1ccccc1C1CCCNC1 (stereo unspecified)	inactive
N#Cc1cccc(CN2CCCCC2=O)c1	inactive
NCc1cccc(CC2CCCNC2=O)c1 (stereo unspecified)	inactive
Nc1ccc(-c2ccoc2)cc1	inactive

Organism: Rattus norvegicus
Assay: Inhibition of rat brain adenylyl cyclase at 10 uM
Settings: not given

Compound	Activity
OCc1ccccc1C1CCCNC1 (stereo unspecified)	inactive
N#Cc1cccc(CN2CCCCC2=O)c1	inactive
NCc1cccc(CC2CCCNC2=O)c1 (stereo unspecified)	inactive
Nc1ccc(-c2ccoc2)cc1	inactive
